Measurements from patent US9963462B2 (priority 2015, dated 2018).

Columns and labels:
[1] = target: SNAP-hSPR (sepiapterin reductase, SPR) (Homo sapiens, UniProt P35270); test: biochemical; format: binding; settings: terbium labelled SNAP-hSPR / SSZ labelled SNAP-EGFP; read-out: hTR-FRET IC50
[2] = test system: BH4 levels in SK-N-BE (2) cells; test: SKN-N-BE (2) cellular assay, BH4 levels by LC-MS; format: cell-based; settings: Homo sapiens, SKNBE2, read-out: SK-N-BE(2) IC50, SK-N-BE (2) cells, BH4 levels by LC-MS
Method: SKN-N-BE(2) Cellular Assay: SK-N-BE (2) cells were seeded in sterile, 96-well plates and incubated for 12-24 hours at 37° C. with 5% CO2 supply. Media was removed and fresh DMEM/F-12 media (containing Glutamine & Pen/Strep but no FBS) was added. Compounds (at different concentrations) were added to different wells. The plates were then incubated for 6-48 hours at 37° C. with 5% CO2 supply. Plates were then centrifuged and the supernatant was removed. The plates were then optionally washed once with PBS. They were then sealed and stored at −80° C. or immediately used. The cells were lysed and the level of BH4 was assessed by LC-MS.
Compounds were assayed for SPR inhibitory activity using a SKN-N-BE (2) cellular assay according to the following procedure. SK-N-BE (2) cells were seeded in sterile, 96-well plates and incubated for 12-24 hours at 37° C. with 5% CO2 supply. Media was removed and fresh DMEM/F-12 media (containing Glutamine & Pen/Strep but no FBS) was added. Compounds (at different concentrations) were added to different wells. The plates were then incubated for 6-48 hours at 37° C. with 5% CO2 supply. Plates were then centrifuged and the supernatant was removed. The plates were then optionally washed once with PBS. They were then sealed and stored at −80° C. or immediately used in the next step. The cells were lysed and the levels of BH4 were assessed by LC-MS.

Chain of SNAP-hSPR (sepiapterin reductase, SPR) (P35270 whole entry): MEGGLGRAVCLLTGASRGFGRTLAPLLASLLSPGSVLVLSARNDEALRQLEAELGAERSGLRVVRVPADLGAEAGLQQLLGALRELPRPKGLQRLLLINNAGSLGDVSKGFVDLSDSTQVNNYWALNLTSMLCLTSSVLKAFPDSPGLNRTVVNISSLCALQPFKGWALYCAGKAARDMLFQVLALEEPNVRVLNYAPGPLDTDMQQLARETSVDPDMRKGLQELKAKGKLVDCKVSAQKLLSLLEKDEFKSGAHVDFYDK

For Cc1cc(=O)[nH]c(-n2cc(C)c(C(=O)N3CCc4ccccc4C3)n2)n1 [Q-0366], the IC50 [1] was 400 nM and the IC50 [2] was 128000 nM.
Molecule Cc1cc(=O)[nH]c(-n2ncc(C(=O)N3Cc4ccccc4C3)c2C)n1 [Q-0302] has an IC50 [1] of 9 nM and an IC50 [2] of 1200 nM.
In the case of Cc1c(C(=O)N2C3CCC2CC(c2ccccc2)C3)cnn1-c1nc2c(c(=O)[nH]1)CCC2 (centres unmarked) [Q-0513], the IC50 [1] is reported as 10 nM and the IC50 [2] is reported as 47 nM.
Molecule Cc1c(C(=O)N2CC2c2ccccc2)cnn1-c1nc2c(c(=O)[nH]1)CCC2 (centres unmarked) [Q-0596] has an IC50 [1] of 4 nM and an IC50 [2] of 16 nM.
In the case of O=C(c1ccnc(-c2nc3ccsc3c(=O)[nH]2)c1)N1CCC(c2c[nH]c3ccccc23)CC1 [Q-0555], the IC50 [1] is reported as 20 nM and the IC50 [2] is reported as 700 nM.
For CN[C@@H]1CCN(C(=O)c2cnn(-c3nc4c(c(=O)[nH]3)CCC4)c2C)C1 [Q-0588], the IC50 [1] was 70 nM and the IC50 [2] was 4700 nM.
Cc1c(C(=O)N2CCC(c3c[nH]c4ccccc34)CC2)cnn1-c1nc2ccsc2c(=O)[nH]1 [Q-0560] was tested, and the IC50 [1] was 3 nM and the IC50 [2] was 12 nM.
For O=C(c1cccc(-c2nc3c(c(=O)[nH]2)CCC3)c1)N1CCC(C(F)(F)F)CC1 [Q-0593, 2-(3-(4-(trifluoromethyl)piperidine-1-carbonyl)phenyl)-6,7-dihydro-3H-cyclopenta[d]pyrimidin-4(5H)-one], the IC50 [1] was 200 nM and the IC50 [2] was 7400 nM.
For Cc1c(C(=O)N2CCC(C(F)(F)F)CC2)cnn1-c1nc2scnc2c(=O)[nH]1 [Q-0441], the IC50 [1] was 100 nM and the IC50 [2] was 31000 nM.
Molecule Cc1cc(=O)[nH]c(-n2ncc(C(=O)N(C)C3CCCc4ccccc43)c2C)n1 (centres unmarked) [Q-0373] has an IC50 [1] of 20 nM and an IC50 [2] of 1500 nM.
Cc1cc(=O)[nH]c(-n2ncc(C(=O)NCCC(F)(F)F)c2C)n1 [Q-0367] gave an IC50 [1] of 70 nM and an IC50 [2] of 11000 nM.
Work on Cc1cc(=O)[nH]c(-n2ncc(C(=O)N3c4ccccc4C[C@H]3C)c2C)n1 (single isomer, unassigned) [Q-0361] yielded an IC50 [1] of 10 nM and an IC50 [2] of 600 nM.
Cc1c(C(=O)N2CCC3(CC2)CC3c2nnc(-c3ccccc3)o2)cnn1-c1nc2c(c(=O)[nH]1)CCC2 (centres unmarked) [Q-0697] showed an IC50 [1] of 4 nM and an IC50 [2] of 200 nM.
Cc1c(C(=O)N2CC[C@@H](N(C)C(=O)OC(C)(C)C)C2)cnn1-c1nc2ccsc2c(=O)[nH]1 [Q-0549] showed an IC50 [1] of 4 nM and an IC50 [2] of 400 nM.
For Cc1c(C(=O)N2CCCC(Oc3ccccc3)C2)cnn1-c1nc2c(c(=O)[nH]1)CCC2 (centres unmarked) [Q-0468], the IC50 [1] was 7 nM and the IC50 [2] was 200 nM.
Work on Cc1c(C(=O)N2CCN(C(=O)OCc3ccccc3)C(C)C2)cnn1-c1nc2c(c(=O)[nH]1)CCC2 (centres unmarked) [Q-0507] yielded an IC50 [1] of 10 nM and an IC50 [2] of 200 nM.
Cc1cc(-n2ncc(C(=O)N3CCC(C(F)(F)F)CC3)c2C)[nH]c(=O)c1 [Q-0439, 4-methyl-6-{5-methyl-4-[4-(trifluoromethyl)piperidine-1-carbonyl]-1H-pyrazol-1-yl}-1,2-dihydropyridin-2-one] gave an IC50 [1] of 1 nM and an IC50 [2] of 96 nM.
Cc1cc(=O)[nH]c(-n2cc(C(=O)N3CCc4ccccc4C3)nn2)n1 [Q-0312, 6-methyl-2-[4-(1,2,3,4-tetrahydroisoquinoline-2-carbonyl)-1H-1,2,3-triazol-1-yl]-3,4-dihydropyrimidin-4-one] showed an IC50 [1] of 20 nM and an IC50 [2] of 10000 nM.
Cc1c(C(=O)N2CCC3(CCCC3)CC2)cnn1-c1nc2ccsc2c(=O)[nH]1 [Q-0398] gave an IC50 [1] of 10 nM and an IC50 [2] of 72 nM.
With Cc1c(C(=O)N2CCC3C(C2)C3C(F)(F)F)cnn1-c1nn2cccc2c(=O)[nH]1 (centres unmarked) [Q-0844] the IC50 [1] was 1 nM and the IC50 [2] was 200 nM.
In the case of Cc1c(C(=O)N2CC3[C@@H](C2)CN3C(=O)OC(C)(C)C)cnn1-c1nn2cccc2c(=O)[nH]1 (some centres unmarked) [Q-0806], the IC50 [1] is reported as 3 nM and the IC50 [2] is reported as 1200 nM.
For Cc1c(C(=O)N2Cc3ccccc3C[C@H]2C(=O)NC(C)(C)C)cnn1-c1nc2c(c(=O)[nH]1)CCC2 [Q-0489], the IC50 [1] was 8 nM and the IC50 [2] was 53 nM.
With Cc1c(C(=O)N2CCCC(C(F)(F)F)C2)cnn1-c1nc2c(c(=O)[nH]1)CCC2 (centres unmarked) [Q-0450] the IC50 [1] was 5 nM and the IC50 [2] was 300 nM.
Cc1cc(-n2cc(C(=O)N3CCC(C(F)(F)F)CC3)cn2)[nH]c(=O)c1 [Q-0460, 4-methyl-6-{4-[4-(trifluoromethyl)piperidine-1-carbonyl]-1H-pyrazol-1-yl}-1,2-dihydropyridin-2-one] showed an IC50 [1] of 3 nM and an IC50 [2] of 600 nM.
For Cc1cc(=O)[nH]c(-n2ncc(C(=O)N3c4ccccc4C[C@@H]3C)c2C)n1 (single isomer, unassigned) [Q-0372], the IC50 [1] was 5 nM and the IC50 [2] was 300 nM.
For O=C(c1cnn(-c2nc3ccsc3c(=O)[nH]2)c1)N1CCC(C(F)(F)F)CC1 [Q-0517], the IC50 [1] was 2 nM and the IC50 [2] was 100 nM.
In the case of Cc1[nH]c2ccccc2c1C1CCN(C(=O)c2cnn(-c3nc4c(c(=O)[nH]3)CCC4)c2C)CC1 [Q-0611], the IC50 [1] is reported as 4 nM and the IC50 [2] is reported as 29 nM.
Cc1cc(=O)[nH]c(-n2nc(C)c(C(=O)N3CCc4ccccc4C3)c2C)n1 [Q-0375] gave an IC50 [1] of 20 nM and an IC50 [2] of 2500 nM.
Work on Cc1c(C(=O)N(Cc2ccccc2)[C@@H](C)c2ccccc2)cnn1-c1nc2c(c(=O)[nH]1)CCC2 [Q-0493] yielded an IC50 [1] of 30 nM and an IC50 [2] of 29 nM.
In the case of Cc1c(C(=O)N2CC(C)(C)OC(C)(C)C2)cnn1-c1nc2ccsc2c(=O)[nH]1 [Q-0405], the IC50 [1] is reported as 10 nM and the IC50 [2] is reported as 1500 nM.
Cc1c(C(=O)N2CCC(CC(F)(F)F)CC2)cnn1-c1nc2c(c(=O)[nH]1)CCC2 [Q-0476] showed an IC50 [1] of 3 nM and an IC50 [2] of 56 nM.
Cc1cc(=O)[nH]c(-n2ncc(C(=O)N3CCc4ccccc4C3)c2CC(C)C)n1 [Q-0353] was tested, and the IC50 [1] was 50 nM and the IC50 [2] was 15000 nM.
For O=C(c1cnn(-c2nc3c(c(=O)[nH]2)CCC3)c1C1CC1)N1CCC(c2nc3ccccc3s2)CC1 [Q-0546], the IC50 [1] was 9 nM and the IC50 [2] was 84 nM.
Molecule Cc1c(C(=O)N2CCC(c3nc4cc(F)ccc4s3)CC2)cnn1-c1nn2cccc2c(=O)[nH]1 [Q-0604] has an IC50 [1] of 7 nM and an IC50 [2] of 72 nM.
With Cc1cc(=O)[nH]c(-n2ncc(C(=O)N3CCc4ccccc4[C@@H]3C)c2C)n1 (single isomer, unassigned) [Q-0339] the IC50 [1] was 9 nM and the IC50 [2] was 1500 nM.
With Cc1nc(-n2ncc(C(=O)N3CCc4ccccc4C3)c2C)[nH]c(=O)c1C [Q-0381] the IC50 [1] was 10 nM and the IC50 [2] was 2100 nM.
Cc1c(C(=O)N2CCC[C@@H]2C(=O)OCc2ccccc2)cnn1-c1nc2c(c(=O)[nH]1)CCC2 [Q-0496] gave an IC50 [1] of 7 nM and an IC50 [2] of 400 nM.
Cc1c(C(=O)N2CCN(C(=O)OC(C)(C)C)CC2)cnn1-c1nc2c(c(=O)[nH]1)CCC2 [Q-0723] gave an IC50 [1] of 3 nM and an IC50 [2] of 200 nM.
With Cc1c(C(=O)N2CCc3ccccc3C2)cnn1-c1nc2c(c(=O)[nH]1)CCC2 [Q-0396] the IC50 [1] was 2 nM and the IC50 [2] was 61 nM.
Molecule O=c1[nH]c(-c2cc(S(=O)(=O)N3CCC(C(F)(F)F)CC3)ccn2)nc2c1CCC2 [Q-0522] has an IC50 [1] of 300 nM and an IC50 [2] of 10000 nM.
For Cc1c(C(=O)N(CC2COc3ccccc3O2)C(C)C)cnn1-c1nc2c(c(=O)[nH]1)CCC2 (centres unmarked) [Q-0500], the IC50 [1] was 30 nM and the IC50 [2] was 97 nM.
Work on Cc1cc(=O)[nH]c(-n2ncc(C(=O)NC3CCCC3)c2C(F)(F)F)n1 [Q-0334] yielded an IC50 [1] of 80 nM and an IC50 [2] of 49000 nM.
Molecule Cc1c(C(=O)N2C3CCC2CC(O)(c2ccccc2)C3)cnn1-c1nc2c(c(=O)[nH]1)CCC2 (centres unmarked) [Q-0509] has an IC50 [1] of 3 nM and an IC50 [2] of 68 nM.
Cc1c(C(=O)N2CCC(C3CC3)CC2)cnn1-c1nc2ccsc2c(=O)[nH]1 [Q-0698] was tested, and the IC50 [1] was 1 nM and the IC50 [2] was 71 nM.
O=C(c1cnn(-c2nn3cccc3c(=O)[nH]2)c1)N1CCC(S(=O)(=O)c2ccccc2)CC1 [Q-0535] showed an IC50 [1] of 4 nM and an IC50 [2] of 400 nM.
Molecule Cc1c(C(=O)N2CCCCC2(C)C)cnn1-c1nc2ccsc2c(=O)[nH]1 [Q-0412] has an IC50 [1] of 9 nM and an IC50 [2] of 500 nM.
O=C(c1cnn(-c2nc3c(c(=O)[nH]2)CCC3)c1)N1CCN2CCC[C@@H]2C1 [Q-0743] gave an IC50 [1] of 4 nM and an IC50 [2] of 400 nM.
Cc1c(C(=O)N2CCC(C(C)(O)C(F)(F)F)CC2)cnn1-c1nc2c(c(=O)[nH]1)CCC2 (centres unmarked) [Q-0449] gave an IC50 [1] of 3 nM and an IC50 [2] of 78 nM.
In the case of O=C(c1cn(-c2nn3cccc3c(=O)[nH]2)nn1)N1CCC(C(F)(F)F)CC1 [Q-0781], the IC50 [1] is reported as 1 nM and the IC50 [2] is reported as 200 nM.
Molecule Cc1c(C(=O)N2CCC(c3c[nH]c4ccccc34)CC2)cnn1-c1nn2c(F)ccc2c(=O)[nH]1 [Q-0624] has an IC50 [1] of 2 nM and an IC50 [2] of 32 nM.
COC1CN(C(=O)c2cnn(-c3nc4c(c(=O)[nH]3)CCC4)c2C)C1 [Q-0470] was tested, and the IC50 [1] was 5 nM and the IC50 [2] was 1000 nM.
O=C(c1cnn(-c2nn3c(F)ccc3c(=O)[nH]2)c1C1CC1)N1CCC(C(F)(F)F)CC1 [Q-0620] gave an IC50 [1] of 1 nM and an IC50 [2] of 100 nM.
Cc1cc(=O)[nH]c(-n2ncc(C(=O)N3CCc4ccccc4C3)c2C(F)F)n1 [Q-0332] gave an IC50 [1] of 10 nM and an IC50 [2] of 2500 nM.
For Cc1c(C(=O)N2CCC(c3nc4ccccc4s3)CC2)cnn1-c1nc2ccsc2c(=O)[nH]1 [Q-0559], the IC50 [1] was 7 nM and the IC50 [2] was 38 nM.
Cc1c(C(=O)N2C[C@@H]3[C@H](C2)[C@@H]3C(N)=O)cnn1-c1nc2c(c(=O)[nH]1)CCC2 [Q-0610] gave an IC50 [1] of 10 nM and an IC50 [2] of 10000 nM.
For Cc1cc(=O)[nH]c(-n2cc(C(=O)N3CCc4ccccc4C3)cn2)n1 [Q-0314], the IC50 [1] was 20 nM and the IC50 [2] was 5800 nM.
CCOC(=O)c1nnn(-c2nn3cccc3c(=O)[nH]2)c1C [Q-0780] showed an IC50 [1] of 1 nM and an IC50 [2] of 200 nM.
With Cc1c(C(=O)N2CCC(NC(=O)OC(C)(C)C)(C(F)(F)F)C2)cnn1-c1nn2cccc2c(=O)[nH]1 (centres unmarked) [Q-0852] the IC50 [1] was 2 nM and the IC50 [2] was 800 nM.
CCC1(C#N)CCN(C(=O)c2cnn(-c3nc4ccsc4c(=O)[nH]3)c2C)CC1 [Q-0562] gave an IC50 [1] of 4 nM and an IC50 [2] of 200 nM.
Molecule Cc1c(C(=O)N2CCC3(CCCCN3)C2)cnn1-c1nc2c(c(=O)[nH]1)CCC2 (centres unmarked) [Q-0577, 2-(5-methyl-4-(2,6-diazaspiro[4.5]decane-2-carbonyl)-1H-pyrazol-1-yl)-6,7-dihydro-3H-cyclopenta[d]pyrimidin-4(5H)-one] has an IC50 [1] of 40 nM and an IC50 [2] of 2100 nM.
For Cc1c(C(=O)N2CCN(C(=O)OC(C)(C)C)C3(CCC3)C2)cnn1-c1nn2cccc2c(=O)[nH]1 [Q-0820], the IC50 [1] was 1 nM and the IC50 [2] was 40 nM.
